EC50, IC50 and outcome data for 68 compounds are collected here from PubChem BioAssay AID179 (DTP/NCI, 2004).

Values joined by “and” are separate entries in the source; they are usually repeats but may differ in a detail not shown here. Equal values may be shown once. Active and inactive are the calls of the source.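 The calls were made as follows: active = compounds giving half or more protection of infected cells from virus-caused growth loss, again on retest; inactive = the rest.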 Where a SMILES comes first, the peptide text is derived from it. [ ]: non-standard residue; d: D form. The star is where a group is joined. ξ: configuration not given here. pGlu = O=C1CC[CH](C(=O)O)N1; Bz = O=C(c1ccccc1)*; ξC = NC(CS)C(=O)O

The subject of this experiment is CEM cells HIV-1 protection, formazan growth assay. As to the kind of experiment: NCI AIDS Antiviral Assay. Particulars: for IC50: measured here: growth of uninfected CEM cells. The procedure, abridged: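 Human CEM cells, uninfected and HIV-1-infected, received five drug concentrations, and growth was read by soluble formazan assay. Compounds giving at least 50% protection were retested; reproducible 100% protection defined confirmed active.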

For the compound `COC(=O)NN(C(=O)OC)c1c(-c2ccccc2)nc(SC)n1N`, the EC50 is over 200 µM and the IC50 is over 200 µM.
Take `CC(C)=CCC[C@]1(C)C=Cc2c(O)c3c(c(CC=C(C)C)c2O1)O[C@]12C(=C[C@@H]4CC1C(C)(C)O[C@@]2(C/C=C(/C)C(=O)O)C4=O)C3=O`: the EC50 is over 0.2 µM and the IC50 was determined as 0.0631 µM.
Consider `COc1cc(C(=O)NC(CCN)(c2ccccc2)c2ccccc2)cc(OC)c1OC`, for which the EC50 was over 200 µM and the 50% inhibitory concentration (IC50) is 67.6 µM.
As to `O=C1CCCCC/C1=C\c1cccc([N+](=O)[O-])c1`, the EC50 was over 200 µM and the half-inhibitory concentration (IC50) is 23.4 µM.
On to `CC(C)(C)OC(=O)C(C#N)C(=O)c1ccc(C(=O)O)[nH]1` (stereo not given), for which the EC50 was over 200 µM and the concentration for half-maximal inhibition (IC50) amounted to 23.4 µM.
Consider `N#C/C(=C\c1ccc(O)c(O)c1)C(=O)c1ccc(O)c(O)c1`, for which the EC50 is over 200 µM and the IC50 amounted to 51.3 µM.
The like results for `COc1ccc(-n2c(=O)n(C)c(=O)n2-c2c(C)c(C)c(C)c(C)c2C)cc1` were, in that order, over 100 µM and 18.6 µM.
In the same order, the values of `N#CC(=N)c1ncn(CCO)c1NC(=O)C(F)(F)F` are over 200 µM and over 200 µM.
On to `CCOC(=O)C(C)NC(=O)NC12CC3CC(CC(F)(C3)C1)C2` (stereo not given), for which the EC50 was over 219 µM and the IC50 was over 200 µM.
For `Cn1c(COc2ccc(/C=N\NC(=O)c3ccc(C(=O)N/N=C/c4ccc(OCc5c[n+]6ccccc6n5C)cc4)cc3)cc2)c[n+]2ccccc12`, the EC50 is 4.57 µM and the IC50 was 9.55 µM.
Turning to `N#C/C(N)=C(\C#N)N=C1OCC(O)C(O)C1O` (stereo not given), the outcome was inactive.
Consider `CC(=O)N(C(C)=O)c1c(C)cc(-c2cccs2)oc1=O`, for which the EC50 was over 200 µM and the concentration for half-maximal inhibition (IC50) was over 100 µM.
In the same order, the values of `CN(N=O)C(=O)N(N)CCCCC(NC(=O)OCc1ccccc1)C(=O)OCc1ccccc1` (stereo not given) are over 39.8 µM and over 39.8 µM.
`COC1N(C2CC(F)C(CO)O2)C(=O)NC(=O)C1(C)Cl` (stereo not given): the EC50 was 14.5 µM and 25.1 µM; the half-inhibitory concentration (IC50) was 794 µM.
With `CCCCCCCC(=O)OCC(C[As](=O)(O)O)OC(=O)CCCCCCC` (stereo not given), the EC50 was over 200 µM and the 50% inhibitory concentration (IC50) stood at 15.1 µM.
For `COC(=O)CN1CCN(c2cccc3c2CCCC3)CC1`, the EC50 was over 200 µM and the IC50 came to 64.6 µM.
As to `CN=C(N)NC`, the EC50 is over 1480 µM and the IC50 is over 1480 µM.
As for `COC(=O)C(=C\Sc1ccccc1)/C=C/C(=O)OC(C)(C)C`, the outcome was inactive.
Same read-out and setting: with `COc1ccc(NC2C(=O)C3(C)CCC2C3(C)C)cc1` (stereo not given) the entry was “inactive”.
Consider `CC1CC(c2cccc3c2OCO3)=Nc2ccccc2S1` (stereo not given), for which the EC50 is over 17.4 µM and the IC50 was over 17.4 µM.
Regarding `CCO/C=N\C1=C(C#N)SC2=N/C(=C\c3ccco3)C(=O)N21`, the result was inactive.
Consider `CN1CC(C(=O)NC2(C)OC3(O)C4CCCN4C(=O)C(Cc4ccccc4)N3C2=O)C=C2c3cccc4[nH]cc(c34)CC21` (stereo not given), for which the EC50 is over 61.7 µM and the half-inhibitory concentration (IC50) was determined as 28.8 µM.
Take `CCOC(=O)C/C(N)=C(\C#N)C(=O)OCC`: the result was inactive.
Turning to `Cc1ccc(S(=O)(=O)OC2C3OC(C)(C)OC3OC2C2CSC(=S=O)S2)cc1` (stereo not given), the EC50 was over 67.6 µM and the IC50 is over 67.6 µM.
Regarding `CCOC1(OCC)CS(=O)(=O)C1c1ccc([N+](=O)[O-])cc1` (stereo not given), the EC50 is over 200 µM and the IC50 was over 200 µM.
Consider `COC(=O)C(CC(=O)Nc1ccc(C)cc1)C(=O)C(=O)Nc1ccccc1C(C)C` (stereo not given), for which the EC50 is over 229 µM and the IC50 was over 229 µM.
`COc1cc(/C=C2/SC(c3ccccc3)N(c3cccc(NC(C)=O)c3)C2=O)cc(OC)c1OC` (stereo not given): the EC50 is over 200 µM and the IC50 was 53.7 µM.
As to `O=C1c2ccccc2C(=O)N1CCC[P+](c1ccccc1)(c1ccccc1)c1ccccc1`, the EC50 was over 200 µM and the IC50 is 95.5 µM.
On to `NC(=O)SCC(=O)NNc1ccccc1`, for which the EC50 is over 200 µM and the IC50 came to 4.47 µM.
On to `O=S(=O)(O)c1cc(O)c2c(O)cc(S(=O)(=O)O)cc2c1`, for which the EC50 was 347 µM and the concentration for half-maximal inhibition (IC50) was determined as 550 µM.
In the same order, the values of `COc1ccc(-c2cc(C3CC3)nc(SCC(=O)O)c2C#N)cc1` are over 200 µM and 39.8 µM.
On to `O=c1n(-c2ccc(Cl)c(Cl)c2)c(=O)n(-c2ccc(Cl)c(Cl)c2)c(=O)n1-c1ccc(Cl)c(Cl)c1`, for which the EC50 was over 200 µM and the concentration for half-maximal inhibition (IC50) is 5.89 µM.
In the case of `CCOC(OCC)[C@@H]1C[C@@H]2N(O[C@H](OC3CCCC3(c3ccccc3)c3ccccc3)[C@H](OC(C)=O)[C@@]2(CC)Cc2ccc(OC)c(OC)c2)O1` (stereo not given in full), the EC50 is over 200 µM and the half-inhibitory concentration (IC50) was over 200 µM.
For the compound `Cc1ccc(/C(=C\C(=O)C(=O)NC23CC4CC(CC(C4)C2)C3)Sc2ccccc2)cc1`, the EC50 was over 200 µM and the IC50 stood at 117 µM.
As for `Cn1c(-c2cccs2)cc(-c2ccsc2)c1-c1ccsc1`, the EC50 is over 200 µM and the IC50 was over 200 µM.
Take `COCCn1cnc2c(Cl)nc(Nc3ccccc3)nc21`: the EC50 was over 200 µM and the IC50 was 28.8 µM.
The like results for `O=C(Nc1ccc(Cl)cc1)c1cc(S(=O)(=O)N2CCNNC2=O)c(S)cc1Cl` were, in that order, 9.77 µM and 129 µM.
In the case of `O/N=C\C(=Nc1ccc(Cc2ccc(N=C(/C=N\O)NO)cc2)cc1)NO`, the EC50 is over 355 µM and the half-inhibitory concentration (IC50) came to 39.8 µM.
The like results for `O=C1C2CC=CCC2C(=O)N1n1c(-c2ccccc2)n[nH]c1=O` (stereo not given) were, in that order, over 200 µM and over 200 µM.
Consider `OCC(O)C(O)C(O)c1nn(-c2ccccc2)c2nc3cc(Cl)c(Cl)cc3nc12` (stereo not given), for which the result was inactive.
Take `O=C(O)[C@@H](NS(=O)(=O)c1ccc([N+](=O)[O-])cc1)c1ccccc1`: the result was inactive.
With `COC(=O)C(CS)NC(=O)CNC(=O)c1ccccc1` (stereo not given) (Bz-Gly-[ξC]-OMe), the EC50 is over 851 µM and the IC50 was 46.8 µM.
In the same order, the values of `CN(C)CCCN=c1c2ccccc2n(O)c2ccccc12` are over 200 µM and 8.13 µM.
Regarding `CC(C)OP(=O)(CP(=O)(OC(C)C)OC(C)C)OC(C)C.[CH3][Sn]([Br])([Br])[Br]`, the EC50 was over 347 µM and the IC50 was over 347 µM.
On to `CCCCCCCCC#CCCCCCCCCCC[C@@H]1C(=O)O[C@H](C)[C@@H]1O` (tested in a mixture with another compound), for which the EC50 is over 200 µM and the IC50 was 35.5 µM.
For the compound `CCOC(=O)c1nc(SC)sc1NC(=O)c1ccc(Cl)cc1`, the EC50 is over 200 µM and the IC50 was 195 µM.
Take `c1ccc(SSc2ccccn2)nc1`: the EC50 was over 200 µM and the IC50 is 5.13 µM.
Turning to `COc1ccc(S(=O)(=O)NCCSSCCNS(=O)(=O)c2ccc(OC)cc2)cc1`, the EC50 is over 200 µM and the IC50 came out at 26.9 µM.
`CC(=O)O[C@H]1CC[C@@]2(C)C(=CC[C@@H]3C2CC[C@]2(C)Nc4oncc4CC32)C1` (stereo not given in full): the result was inactive.
As for `Cc1ccc(N=Nc2ccc(O)c(CN(C)C)c2)cc1C`, the EC50 is over 200 µM and the half-inhibitory concentration (IC50) came out at 17.4 µM.
As to `N=C(N)Cc1ccc(NC(=O)c2ccc(C(=O)Nc3ccc(CC(=N)N)cc3)cc2)cc1`, the EC50 was over 70.8 µM and the IC50 was 22.4 µM.
Turning to `CC(=O)NC1=NC(=O)/C(=C\c2cccc(Cl)c2Cl)N1C`, the EC50 was over 200 µM and the half-maximal inhibitory concentration (IC50) is 81.3 µM.
As to `CC=C(c1cc(Cl)c(OC)c(C(=O)OC)c1)c1cc(Cl)c(OC)c(C(=O)OC)c1`, the EC50 is over 2 µM and the half-inhibitory concentration (IC50) was 0.0631 µM.
As for `O=C1Sc2ccc(Br)cc2C(=O)N2CSCC12` (stereo not given), the EC50 is over 200 µM and the half-maximal inhibitory concentration (IC50) is over 200 µM.
For the compound `CCN(CC)CCCC(C)Nc1ccnc2cc(F)ccc12` (stereo not given) (tested in a mixture with another compound), the EC50 was over 200 µM and the IC50 is over 200 µM.
With `O=C1c2c(c(-c3ccccc3)c(-c3ccccc3)c(-c3ccccc3)c2-c2ccccc2)C(=O)N1c1cccc(Br)c1`, the EC50 is over 3.31 µM and the IC50 was over 3.31 µM.
On to `COc1c2occc2c(CN)c2ccc(=O)oc12`, for which the EC50 is over 316 µM and the IC50 amounted to 42.7 µM.
The like results for `CCOc1c(OC)cc(-c2nc3n(n2)C(=O)C(CC)S3)cc1OC` (stereo not given) were, in that order, over 200 µM and over 200 µM.
Take `CCCCCCCCCCC(C)CCCCCCC(=O)OCC(COP(=O)([O-])OCC[N+](C)(C)C)OC(=O)CCCCCCC(C)CCCCCCCCCC` (stereo not given): the outcome was inactive.
On to `O=C(N/N=C\c1ccccc1)c1ccccc1Nc1ccccc1C(=O)N/N=C/c1ccccc1`, for which the EC50 is 26.9 µM and the IC50 was over 200 µM.
In the case of `O=C1C=CC(=O)c2c1ccc1c2[nH]c2ccccc21`, the result was inactive.
Turning to `C=C1CC(CCCl)(c2ccccc2)OC1=O` (stereo not given), the EC50 was over 41.7 µM and the IC50 worked out at 6.46 µM.
Turning to `CCOC(=O)/C=C/[C@H](O[Si](CC)(CC)CC)C(C)(C)C`, the EC50 was over 200 µM and the concentration for half-maximal inhibition (IC50) is over 200 µM.
For `CC(=O)OCC1=C(C)C[C@H]([C@@H](COC(C)=O)C2CCC3C4C[C@H]5O[C@]56CC=CC(=O)[C@]6(C)C4CC[C@@]32C)OC1=O` (stereo not given in full), the EC50 was over 200 µM and the 50% inhibitory concentration (IC50) is 0.135 µM.
With `Cn1ccn2c3nc4ccccc4nc3c(=O)c(C#N)c12`, the outcome was inactive.
With `CCCC1(C)OC(=O)C(c2ccccc2)O1` (stereo not given), the EC50 is over 200 µM and the concentration for half-maximal inhibition (IC50) is over 200 µM.
Consider `COC(=O)C1CCCN1C(=O)C(Cc1cn(S(=O)(=O)c2ccc(C)cc2)cn1)NC(=O)OC(C)(C)C` (stereo not given), for which the EC50 is over 200 µM and the concentration for half-maximal inhibition (IC50) was over 200 µM.
For `CC(C)CC(NC(=O)C(CO)NC(=O)C(CCCCN)NC(=O)C(CCCCN)NC(=O)C(NC(=O)CNC(=O)C(NC(=O)C(CO)NC(=O)C(NC(=O)C(NC(=O)C(CO)NC(=O)C(CC(N)=O)NC(=O)C1CCC(=O)N1)C(C)C)C(C)C)C(C)O)C(C)C)C(=O)NC(Cc1ccccc1)C(=O)NC(CCC(N)=O)C(=O)O` (stereo not given) ([pGlu]NSVVSTGVKKSLFQ-OH; configuration not given here), the EC50 was over 30.9 µM and the IC50 was over 30.9 µM.

In general, EC50 refers to the concentration that produces a half-maximal response. The IC50 is the point on the concentration scale where inhibition reaches its midpoint.
